Results on 27 compounds are retold here after ChEMBL document CHEMBL6096675 (J Med Chem, 2025).

In general, DC50 refers to the concentration giving 50% degradation. In general, Emax refers to the greatest response seen or fitted, relative to the assay's reference.

The target in data set [1] is von Hippel-Lindau disease tumor suppressor/SWI/SNF-related matrix-associated actin-dependent regulator of chromatin subfamily A member 2 (Homo sapiens, UniProt P51531+P40337). Put plainly: PROTAC activity at SMARCA2/VHL1 in human HeLa cells assessed as protein degradation by Nano-Glo HiBiT lytic detection assay. In kind it is cell-based. Background: With HiBiT, luminescence reflects the tagged protein that the partner subunit can reach.
von Hippel-Lindau disease tumor suppressor/SWI/SNF-related matrix-associated actin-dependent regulator of chromatin subfamily A member 2, sequence (P51531 whole entry): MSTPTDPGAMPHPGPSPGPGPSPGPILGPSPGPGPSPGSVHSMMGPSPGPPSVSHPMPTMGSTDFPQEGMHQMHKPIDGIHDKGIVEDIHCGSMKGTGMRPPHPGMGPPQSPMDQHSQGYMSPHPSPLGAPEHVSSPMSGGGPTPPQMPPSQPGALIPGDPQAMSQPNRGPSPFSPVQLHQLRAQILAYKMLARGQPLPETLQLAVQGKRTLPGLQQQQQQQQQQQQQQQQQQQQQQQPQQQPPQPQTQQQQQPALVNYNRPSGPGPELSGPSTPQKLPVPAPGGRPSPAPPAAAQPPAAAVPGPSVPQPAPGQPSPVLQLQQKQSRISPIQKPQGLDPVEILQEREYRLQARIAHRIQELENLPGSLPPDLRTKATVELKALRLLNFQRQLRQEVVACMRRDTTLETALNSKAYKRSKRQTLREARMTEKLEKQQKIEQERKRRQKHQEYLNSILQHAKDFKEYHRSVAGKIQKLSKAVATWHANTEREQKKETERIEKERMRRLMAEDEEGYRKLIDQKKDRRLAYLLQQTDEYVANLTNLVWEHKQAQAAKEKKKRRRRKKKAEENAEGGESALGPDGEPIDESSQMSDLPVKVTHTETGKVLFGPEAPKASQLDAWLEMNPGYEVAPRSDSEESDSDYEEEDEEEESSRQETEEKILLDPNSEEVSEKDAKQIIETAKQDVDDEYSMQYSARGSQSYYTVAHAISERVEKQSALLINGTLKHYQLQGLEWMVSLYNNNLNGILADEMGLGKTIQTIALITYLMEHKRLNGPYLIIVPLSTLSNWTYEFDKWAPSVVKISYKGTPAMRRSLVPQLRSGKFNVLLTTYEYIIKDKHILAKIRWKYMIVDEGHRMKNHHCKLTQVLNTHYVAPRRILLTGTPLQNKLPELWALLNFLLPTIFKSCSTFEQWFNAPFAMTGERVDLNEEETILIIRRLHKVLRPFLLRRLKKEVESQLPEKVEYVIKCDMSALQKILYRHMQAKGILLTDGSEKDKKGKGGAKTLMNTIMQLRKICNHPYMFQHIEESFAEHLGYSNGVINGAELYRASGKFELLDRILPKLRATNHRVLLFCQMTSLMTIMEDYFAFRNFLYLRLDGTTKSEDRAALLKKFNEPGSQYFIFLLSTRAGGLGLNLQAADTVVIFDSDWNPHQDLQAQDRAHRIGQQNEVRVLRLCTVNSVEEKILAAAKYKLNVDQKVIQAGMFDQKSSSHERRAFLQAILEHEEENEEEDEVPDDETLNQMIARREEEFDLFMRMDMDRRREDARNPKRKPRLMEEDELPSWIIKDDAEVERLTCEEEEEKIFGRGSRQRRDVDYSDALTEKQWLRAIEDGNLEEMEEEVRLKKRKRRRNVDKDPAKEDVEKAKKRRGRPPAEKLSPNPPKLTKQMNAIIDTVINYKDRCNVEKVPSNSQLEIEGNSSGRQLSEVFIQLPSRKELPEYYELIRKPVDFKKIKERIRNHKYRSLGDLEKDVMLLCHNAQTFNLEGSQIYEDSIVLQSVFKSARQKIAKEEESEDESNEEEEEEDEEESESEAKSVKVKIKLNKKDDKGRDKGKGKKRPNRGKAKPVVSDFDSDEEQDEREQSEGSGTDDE
von Hippel-Lindau disease tumor suppressor/SWI/SNF-related matrix-associated actin-dependent regulator of chromatin subfamily A member 2, sequence (P40337 whole entry): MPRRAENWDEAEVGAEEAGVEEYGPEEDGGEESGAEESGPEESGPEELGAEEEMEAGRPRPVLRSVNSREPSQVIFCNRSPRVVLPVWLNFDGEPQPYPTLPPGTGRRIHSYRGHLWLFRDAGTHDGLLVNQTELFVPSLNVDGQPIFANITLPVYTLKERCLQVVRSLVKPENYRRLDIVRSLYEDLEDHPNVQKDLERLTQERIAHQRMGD

For data set [2], the target named is von Hippel-Lindau disease tumor suppressor/SWI/SNF-related matrix-associated actin-dependent regulator of chromatin subfamily A member 4 (Homo sapiens, UniProt P51532+P40337). Nature of the data set: PROTAC activity at SMARCA4/VHL1 in human HeLa cells assessed as protein degradation by Nano-Glo HiBiT lytic detection assay. In kind it is cell-based.
von Hippel-Lindau disease tumor suppressor/SWI/SNF-related matrix-associated actin-dependent regulator of chromatin subfamily A member 4, sequence (P51532 whole entry): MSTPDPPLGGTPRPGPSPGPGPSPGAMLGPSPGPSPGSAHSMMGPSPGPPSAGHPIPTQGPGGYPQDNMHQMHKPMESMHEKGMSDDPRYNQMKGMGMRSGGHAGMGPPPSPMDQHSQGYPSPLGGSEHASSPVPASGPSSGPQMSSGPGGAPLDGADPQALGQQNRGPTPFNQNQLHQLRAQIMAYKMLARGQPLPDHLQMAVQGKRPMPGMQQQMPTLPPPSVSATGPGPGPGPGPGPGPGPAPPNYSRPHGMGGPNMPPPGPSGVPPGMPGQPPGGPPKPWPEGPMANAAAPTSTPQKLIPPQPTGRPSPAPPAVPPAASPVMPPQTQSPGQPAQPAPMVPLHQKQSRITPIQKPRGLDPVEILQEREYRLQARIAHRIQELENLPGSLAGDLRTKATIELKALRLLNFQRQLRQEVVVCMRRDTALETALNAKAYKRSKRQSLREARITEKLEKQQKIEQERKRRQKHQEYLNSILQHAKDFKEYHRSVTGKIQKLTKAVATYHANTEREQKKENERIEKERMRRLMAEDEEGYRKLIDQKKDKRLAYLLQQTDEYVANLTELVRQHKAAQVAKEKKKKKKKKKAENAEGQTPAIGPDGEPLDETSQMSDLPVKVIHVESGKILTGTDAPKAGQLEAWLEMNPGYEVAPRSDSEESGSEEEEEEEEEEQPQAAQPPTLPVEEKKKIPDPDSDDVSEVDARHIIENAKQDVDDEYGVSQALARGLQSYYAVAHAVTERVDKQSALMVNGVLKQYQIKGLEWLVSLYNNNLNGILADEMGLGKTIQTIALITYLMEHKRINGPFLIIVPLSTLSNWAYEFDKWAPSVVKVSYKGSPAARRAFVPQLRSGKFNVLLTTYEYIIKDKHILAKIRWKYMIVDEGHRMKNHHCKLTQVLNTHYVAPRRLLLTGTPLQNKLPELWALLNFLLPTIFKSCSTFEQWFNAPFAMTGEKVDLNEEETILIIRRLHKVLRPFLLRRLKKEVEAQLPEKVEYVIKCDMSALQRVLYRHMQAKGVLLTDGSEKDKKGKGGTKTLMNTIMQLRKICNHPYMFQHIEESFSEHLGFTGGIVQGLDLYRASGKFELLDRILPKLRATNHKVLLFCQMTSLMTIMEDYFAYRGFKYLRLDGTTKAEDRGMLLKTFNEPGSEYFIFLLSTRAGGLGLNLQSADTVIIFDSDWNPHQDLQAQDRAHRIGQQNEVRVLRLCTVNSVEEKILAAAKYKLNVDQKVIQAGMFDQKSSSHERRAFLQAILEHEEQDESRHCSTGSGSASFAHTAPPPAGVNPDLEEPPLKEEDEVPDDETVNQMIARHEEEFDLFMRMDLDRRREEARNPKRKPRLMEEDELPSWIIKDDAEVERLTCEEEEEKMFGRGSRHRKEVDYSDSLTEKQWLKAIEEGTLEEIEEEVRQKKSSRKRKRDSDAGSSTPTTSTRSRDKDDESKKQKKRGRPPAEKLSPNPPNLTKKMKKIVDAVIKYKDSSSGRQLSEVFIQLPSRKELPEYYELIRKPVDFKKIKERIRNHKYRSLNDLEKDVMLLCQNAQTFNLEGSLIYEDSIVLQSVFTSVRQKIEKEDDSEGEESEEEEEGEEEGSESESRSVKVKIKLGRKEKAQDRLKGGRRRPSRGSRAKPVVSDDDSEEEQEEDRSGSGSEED
von Hippel-Lindau disease tumor suppressor/SWI/SNF-related matrix-associated actin-dependent regulator of chromatin subfamily A member 4, sequence (P40337 whole entry): as the sequence (P40337 whole entry) above
A short description of data set [3]: PROTAC activity at SMARCA2/E3 ubiquitin ligase (unknown origin) assessed as protein degradation. On the set-up: species or system Homo sapiens.
Data set [4] is filed under the species Homo sapiens. Nature of the data set: PROTAC activity at SMARCA2/E3 ubiquitin ligase (unknown origin) assessed as maximal protein degradation.
The nature of data set [5]: PROTAC activity at SMARCA4/E3 ubiquitin ligase (unknown origin) assessed as protein degradation. Set-up: species or system Homo sapiens.
The species entered for data set [6] is Homo sapiens. Put plainly: Selectivity ratio, ratio of DC50 for PROTAC activity at SMARCA2/E3 ubiquitin ligase (unknown origin) to DC50 for PROTAC activity at SMARCA4/E3 ubiquitin ligase (unknown origin.
Data set [7] is filed under the species Homo sapiens. Nature of the data set: PROTAC activity at SMARCA4/E3 ubiquitin ligase (unknown origin) assessed as maximal protein degradation.
A short description of data set [8]: Drug uptake in tumor of human NCI-H838 cells xenografted SCID mouse model at 10 mg/kg, iv measured after 96 hrs by LC-MS/MS analysis. The note with it: read-out: Drug uptake. In kind it is ADME, organism-based, Neoplasm. A general note: In xenograft studies the graft and the host belong to different species.
Data set [9] in a line: Plasma concentration in SCID mouse xenografted with human NCI-H838 cells at 10 mg/kg, iv measured after 96 hrs by LC-MS/MS analysis. It counts as ADME, organism-based.
The nature of data set [10]: Plasma concentration in SCID mouse xenografted with human NCI-H838 cells at 10 mg/kg, iv measured after 24 hrs by LC-MS/MS analysis. It counts as ADME, organism-based.
Data set [11] in a line: Drug uptake in tumor of human NCI-H838 cells xenografted SCID mouse model at 10 mg/kg, iv measured after 24 hrs by LC-MS/MS analysis. In kind it is ADME, organism-based, Neoplasm. The note with it: read-out: Drug uptake.

`CC(C)(C)[C@@H](C(=O)N1C[C@H](O)C[C@H]1C(=O)N[C@@H](CN1CCOCC1)c1ccc(-c2ccccc2)cc1)n1cc([C@H]2CC[C@H](CN3CCC(c4ccc5c(c4)-n4c(nc(=O)c6c(Cl)cccc64)C54CCCCC4)CC3)CC2)nn1`: the DC50 in data set [1] was found to be 5 nM; in [2], 430 nM.
On to `Cc1ncsc1-c1ccc([C@H](C)NC(=O)[C@@H]2C[C@@H](O)CN2C(=O)[C@@H](n2cc([C@H]3CC[C@H](CN4CCC(c5ccc6c(c5)-n5c(nc(=O)c7c(Br)cccc75)C65CCCCC5)CC4)CC3)nn2)C(C)(C)C)cc1`, for which the DC50 was 0.24 nM in [1] and 22 nM in [2].
As to `Cc1ncsc1-c1ccc([C@H](C)NC(=O)[C@@H]2C[C@@H](O)CN2C(=O)[C@@H](NC(=O)[C@H]2CC[C@H](CN3CCC(c4ccc5c(c4)C4(CCCCC4)c4nc(=O)c6c(Cl)cccc6n4-5)CC3)CC2)C(C)(C)C)cc1`, the DC50 in [1] was 6.3 nM.
For `Cc1ncsc1-c1ccc([C@H](CN2CCC(F)(F)CC2)NC(=O)[C@@H]2C[C@@H](O)CN2C(=O)[C@@H](n2cc([C@H]3CC[C@H](CN4CCC(c5ccc6c(c5)-n5c(nc(=O)c7c(Cl)cccc75)C65CCCCC5)CC4)CC3)nn2)C(C)(C)C)cc1`, the half-maximal degradation concentration (DC50) in data set [1] was 2 nM; in data set [2], above 1000 nM.
Taken in the same sequence, the figures for `COCCOCCOCCOCCOC[C@H](NC(=O)[C@@H]1C[C@@H](O)CN1C(=O)[C@@H](n1cc([C@H]2CC[C@H](CN3CCC(c4ccc5c(c4)-n4c(nc(=O)c6c(Cl)cccc64)C54CCCCC4)CC3)CC2)nn1)C(C)(C)C)c1ccc(-c2scnc2C)cc1` were 3 nM and above 1000 nM.
As for `Cc1ncsc1-c1ccc([C@H](C)NC(=O)[C@@H]2C[C@@H](O)CN2C(=O)[C@@H](NC(=O)[C@H]2CC[C@H](CN3CCC(c4ccc5c(c4)-n4c(nc(=O)c6c(Cl)cccc64)C54CCCCC4)CC3)CC2)C(C)(C)C)cc1`, the DC50 in [1] turned out to be 8 nM.
Consider `Cc1ncsc1-c1ccc([C@H](CC[C@H](C)CCN2CCC(c3ccc4c(c3)n(C3CCCC3)c3nc(=O)c5c(Br)cccc5n43)CC2)NC(=O)[C@@H]2C[C@@H](O)CN2C(=O)[C@@H](NC(=O)C2(F)CC2)C(C)(C)C)cc1`, for which the DC50 was 1 nM in data set [3] and 32 nM in data set [5]. The Emax in the data set listed under Homo sapiens [4] was 81%; in the data set filed under Homo sapiens [7], 67%. Moreover, the Ratio in the data set filed under Homo sapiens [6] was 32.
Consider `Cc1ncsc1-c1ccc([C@H](CN2CC(C(=O)O)C2)NC(=O)[C@@H]2C[C@@H](O)CN2C(=O)[C@@H](n2cc([C@H]3CC[C@H](CN4CCC(c5ccc6c(c5)-n5c(nc(=O)c7c(Cl)cccc75)C65CCCCC5)CC4)CC3)nn2)C(C)(C)C)cc1`, for which the figures for the DC50 in data set [1] and in data set [2] were 228 nM and above 1000 nM, respectively.
Taken in the same sequence, the figures for `Cc1ncsc1-c1ccc([C@H](C)NC(=O)[C@@H]2C[C@@H](O)CN2C(=O)[C@@H](n2cc([C@H]3CC[C@H](CN4CCC(c5ccc6c(c5)-n5c(nc(=O)c7c(Cl)cccc75)C65CCCCC5)CC4)CC3)nn2)C(C)(C)C)cc1` were 0.3 nM and 115 nM.
The corresponding values for `CC(C)(C)[C@@H](C(=O)N1C[C@H](O)C[C@H]1C(=O)N[C@@H](CN1CCOCC1)c1ccc(-c2ocnc2C(F)(F)F)cc1)n1cc([C@H]2CC[C@H](CN3CCC(c4ccc5c(c4)-n4c(nc(=O)c6c(Cl)cccc64)C54CCCCC4)CC3)CC2)nn1` are 16 nM and above 1000 nM.
Taken in the same sequence, the figures for `Cc1ncsc1-c1ccc([C@H](CN2CC(C)(O)C2)NC(=O)[C@@H]2C[C@@H](O)CN2C(=O)[C@@H](n2cc([C@H]3CC[C@H](CN4CCC(c5ccc6c(c5)-n5c(nc(=O)c7c(Cl)cccc75)C65CCCCC5)CC4)CC3)nn2)C(C)(C)C)cc1` were 2 nM and above 1000 nM.
Turning to `CC(C)(C)[C@@H](C(=O)N1C[C@H](O)C[C@H]1C(=O)N[C@@H](CN1CCOCC1)c1ccc(-c2ccccc2F)cc1)n1cc([C@H]2CC[C@H](CN3CCC(c4ccc5c(c4)-n4c(nc(=O)c6c(Cl)cccc64)C54CCCCC4)CC3)CC2)nn1`, the 50% degradation concentration (DC50) in data set [1] stood at 1 nM; in data set [2], 222 nM.
`Cc1ncsc1-c1ccc([C@H](CN2CCS(=O)(=O)CC2)NC(=O)[C@@H]2C[C@@H](O)CN2C(=O)[C@@H](n2cc([C@H]3CC[C@H](CN4CCC(c5ccc6c(c5)-n5c(nc(=O)c7c(Cl)cccc75)C65CCCCC5)CC4)CC3)nn2)C(C)(C)C)cc1`: the figures for the DC50 in data set [1] and in data set [2] were 5 nM and above 1000 nM, respectively.
Taken in the same sequence, the figures for `Cc1ncsc1-c1ccc([C@H](CN2CCC(C(=O)O)CC2)NC(=O)[C@@H]2C[C@@H](O)CN2C(=O)[C@@H](n2cc([C@H]3CC[C@H](CN4CCC(c5ccc6c(c5)-n5c(nc(=O)c7c(Cl)cccc75)C65CCCCC5)CC4)CC3)nn2)C(C)(C)C)cc1` were 111 nM and above 1000 nM.
Take `Cc1ncsc1-c1ccc([C@H](C)NC(=O)[C@H]2C[C@@H](O)CN2C(=O)[C@@H](c2cc(N3CCC(CN4CCC(O[C@H]5C[C@H](Oc6cc(N7C8CCC7CN(c7cc(-c9ccccc9O)nnc7N)C8)ccn6)C5)CC4)CC3)no2)C(C)C)cc1`: the DC50 in data set [3] amounted to 0.04 nM; in [5], 1.1 nM.
Regarding `Cc1ncsc1-c1ccc([C@H](CN2CCN(C)CC2)NC(=O)[C@@H]2C[C@@H](O)CN2C(=O)[C@@H](n2cc([C@H]3CC[C@H](CN4CCC(c5ccc6c(c5)-n5c(nc(=O)c7c(Cl)cccc75)C65CCCCC5)CC4)CC3)nn2)C(C)(C)C)cc1`, the DC50 in data set [1] was determined as 1 nM; in data set [2], 62 nM.
Taken in the same sequence, the figures for `Cc1ncsc1-c1ccc([C@H](C)NC(=O)[C@@H]2C[C@@H](O)CN2C(=O)[C@@H](n2cc([C@H]3CC[C@H](CN4CCC(c5ccc6c(c5)C5(CCCCC5)c5nc(=O)c7c(Br)cccc7n5-6)CC4)CC3)nn2)C(C)(C)C)cc1` were 0.15 nM and 2 nM.
`Cc1ncsc1-c1ccc([C@H](C)NC(=O)[C@@H]2C[C@@H](O)CN2C(=O)[C@@H](n2cc([C@H]3CC[C@H](CN4CCC(c5ccc6c(c5)C5(CCCCC5)c5nc(=O)c7c(Cl)cccc7n5-6)CC4)CC3)nn2)C(C)(C)C)cc1`: the DC50 in [1] is 0.29 nM; in [2], 3 nM.
On to `Cc1nc(C)c(-c2ccc([C@H](CN3CCOCC3)NC(=O)[C@@H]3C[C@@H](O)CN3C(=O)[C@@H](n3cc([C@H]4CC[C@H](CN5CCC(c6ccc7c(c6)-n6c(nc(=O)c8c(Cl)cccc86)C76CCCCC6)CC5)CC4)nn3)C(C)(C)C)cc2)s1`, for which the DC50 in data set [1] is 1 nM; in data set [2], above 1000 nM.
For `COCCOCCOCCOC[C@H](NC(=O)[C@@H]1C[C@@H](O)CN1C(=O)[C@@H](n1cc([C@H]2CC[C@H](CN3CCC(c4ccc5c(c4)-n4c(nc(=O)c6c(Cl)cccc64)C54CCCCC4)CC3)CC2)nn1)C(C)(C)C)c1ccc(-c2scnc2C)cc1`, the DC50 in [1] is 2 nM; in [2], above 1000 nM.
The corresponding values for `Cc1ccccc1-c1ccc([C@H](CN2CCOCC2)NC(=O)[C@@H]2C[C@@H](O)CN2C(=O)[C@@H](n2cc([C@H]3CC[C@H](CN4CCC(c5ccc6c(c5)-n5c(nc(=O)c7c(Cl)cccc75)C65CCCCC5)CC4)CC3)nn2)C(C)(C)C)cc1` are 8 nM and 789 nM.
For the compound `COCCOCCOC[C@H](NC(=O)[C@@H]1C[C@@H](O)CN1C(=O)[C@@H](n1cc([C@H]2CC[C@H](CN3CCC(c4ccc5c(c4)-n4c(nc(=O)c6c(Cl)cccc64)C54CCCCC4)CC3)CC2)nn1)C(C)(C)C)c1ccc(-c2scnc2C)cc1`, the concentration at 96 h was 53 ng/mL in [8] and 4.2 ng/mL in data set [9]. For the same compound, the DC50 is 0.4 nM in data set [1] and above 1000 nM in [2]. Further, the results for the concentration at 24 h in data set [10] and in data set [11] were 5.5 ng/mL and 113 ng/mL, respectively.
For the compound `COCCOC[C@H](NC(=O)[C@@H]1C[C@@H](O)CN1C(=O)[C@@H](n1cc([C@H]2CC[C@H](CN3CCC(c4ccc5c(c4)-n4c(nc(=O)c6c(Cl)cccc64)C54CCCCC4)CC3)CC2)nn1)C(C)(C)C)c1ccc(-c2scnc2C)cc1`, the concentration at 96 h in data set [8] amounted to 79 ng/mL; in data set [9] it was 8.3 ng/mL. In addition, the DC50 was 0.4 nM in [1] and above 1000 nM in data set [2]. Also, the results for the concentration at 24 h in [10] and in data set [11] were 13 ng/mL and 255 ng/mL, respectively.
With `Cc1nc(C)c(-c2ccc([C@H](CN3CCOCC3)NC(=O)[C@@H]3C[C@@H](O)CN3C(=O)[C@@H](n3cc([C@H]4CC[C@H](CN5CCC(c6ccc7c(c6)-n6c(nc(=O)c8c(Cl)cccc86)C76CCCCC6)CC5)CC4)nn3)C(C)(C)C)cc2)o1`, the results for the DC50 in data set [1] and in data set [2] were 1 nM and 575 nM, respectively.
With `Cc1ncsc1-c1ccc([C@H](CN2CC(C)(F)C2)NC(=O)[C@@H]2C[C@@H](O)CN2C(=O)[C@@H](n2cc([C@H]3CC[C@H](CN4CCC(c5ccc6c(c5)-n5c(nc(=O)c7c(Cl)cccc75)C65CCCCC5)CC4)CC3)nn2)C(C)(C)C)cc1`, the DC50 in data set [1] was 1 nM; in data set [2] it was above 1000 nM.
Take `Cc1ncoc1-c1ccc([C@H](CN2CCOCC2)NC(=O)[C@@H]2C[C@@H](O)CN2C(=O)[C@@H](n2cc([C@H]3CC[C@H](CN4CCC(c5ccc6c(c5)-n5c(nc(=O)c7c(Cl)cccc75)C65CCCCC5)CC4)CC3)nn2)C(C)(C)C)cc1`: the DC50 was 1 nM in data set [1] and above 1000 nM in data set [2].
Take `Cc1ncsc1-c1ccc([C@H](CN2CCOCC2)NC(=O)[C@@H]2C[C@@H](O)CN2C(=O)[C@@H](n2cc([C@H]3CC[C@H](CN4CCC(c5ccc6c(c5)-n5c(nc(=O)c7c(Cl)cccc75)C65CCCCC5)CC4)CC3)nn2)C(C)(C)O)cc1`: the 50% degradation concentration (DC50) is 1 nM in data set [1] and above 1000 nM in data set [2].
